Data set [1] can be described thus: physchem. Summed up: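 Solubility at pH 7.4 determined by stepwise addition of 200 mM phosphate buffer in 100 μL increments to 3 mg peptide, mixing briefly each time, until no insoluble material remained, then measured by liquid chromatography.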
Data set [2] in a line: Dog plasma protein binding (PPB). The data set is classed as in vitro ADME. To be noted: pH 7.4; fraction unbound; dog serum; read-out: Dog PPB (FUplasma). The text has this:
Dog PPB values presented below are obtained essentially as described for Human PPB samples, with the difference being that dog serum is used instead of human serum. Table 10 is provided with the values of (Fu,plasma) as fraction unbound expressed as a percentage compared to the percent bound. i.e. if the value is 0.0123, then the fraction unbound is […], which is 1.23% of the peptide is unbound and 98.77% is bound in plasma. Methods and analysis for performing the dog PPB protocol and results are the same as noted herein as for the Human PPB protocol and analysis.

Data set [3] is described as follows: Human plasma protein binding (PPB). The data set is classed as in vitro ADME. The following applies: for free unbound peptide in human plasma (in words): judged for once per week (QW) dosing. Here is the method: Stock solutions: (1000 μM) of the peptides are prepared in DMSO.
Human plasma (mixed gender; containing K2-EDTA as anti-coagulant; pre-adjusted to pH 7.4—NB alternative species may be used) is spiked individually with each test peptide (1000 nmol/L), sampled for analysis and then incubated (n=4) at 37° C. in a water bath for 30 minutes. Following the incubation period, the plasma is sampled for analysis, then transferred to ultracentrifugation tubes and centrifuged (n=3) at […] and 4° C. for 3 hours, after which the supernatant is sampled for analysis. An additional aliquot of the supernatant is taken at the end of the centrifugation period to determine the total protein concentration. An aliquot of the incubated plasma will be stored at 4° C. for 3 hours and then sampled for analysis. At the point of sampling, all samples are matrix-matched, treated with ice-cold acetonitrile/methanol (4:1 (vfv)) containing internal standard, centrifuged al 2000 g and 4° C. for 10 minutes and stored prior to LC-MS/MS analysis. An appropriate positive control compound control will be incubated and centrifuged in parallel; control plasma is also centrifuged to generate samples for matrix-matching. Fraction unbound in plasma (Fuplasma) values is determined by comparison of the analyte response in plasma to the analyte response in the supernatant, determined via peak area response ratios.
The samples are analyzed by LC-MS/MS using a 6500 (or equivalent) triple quadrupole mass spectrometer (AB Sciex) coupled to an appropriate Liquid Chromatography (LC) system. Protein binding and stability values are determined via peak area ratios using multiple reaction monitoring (MRM) parameters following compound optimisation. Multiple reaction monitoring (MRM) is a highly sensitive method of targeted mass spectrometry (MS) that can be used to selectively detect and quantify peptides based on the screening of specified precursor peptide-to-fragment ion transitions.

Where [4] appears, read: both sexes, pH 7.4, fraction unbound, human plasma, 1000 nmol/L peptide, ultracentrifugation, read-out: Human PPB (FUplasma).

These results are taken from patent US20230143604A1, “QW DOSING OF GIP RECEPTOR AGONIST PEPTIDE COMPOUNDS AND USES THEREOF” (TAKEDA PHARMACEUTICAL COMPANY LIMITED, priority 2020, published 2023).

Starred links: 1 amine or outer side, 2 acyl side, 3 side chain; linkers in the order of their positions; H or OH if unused. Non-standard residues stand in square brackets, D forms with d. Residues, ends and D or L forms follow the SMILES beside them. Groups on a side chain read outwards from the residue. *: point of attachment. C18 diacid = O=C(O)CCCCCCCCCCCCCCCCC(=O)*; C17 diacid = O=C(O)CCCCCCCCCCCCCCCC(=O)*; γGlu = O=C(O)[C@H](CCC(=O)[*:2])N[*:1]; NMeY = CN[C@@H](Cc1ccc(O)cc1)C(=O)O; AEEA = NCCOCCOCC(=O)O; Aib = CC(C)(N)C(=O)O

One may read the solubility as how much of the substance goes into solution per volume. Lower therefore signals a poorly soluble substance.

In data set [1] (pH 7.4, aqueous buffer), `CC[C@H](C)[C@H](NC(=O)[C@H](CO)NC(=O)[C@H](Cc1ccc(O)cc1)NC(=O)[C@H](CC(=O)O)NC(=O)[C@H](CO)NC(=O)[C@@H](NC(=O)[C@H](Cc1ccccc1)NC(=O)[C@@H](NC(=O)CNC(=O)[C@H](CCC(=O)O)NC(=O)C(C)(C)NC(=O)[C@H](Cc1ccc(O)cc1)NC)[C@@H](C)O)[C@@H](C)CC)C(=O)N[C@@H](C)C(=O)N[C@@H](CC(C)C)C(=O)N[C@@H](CC(=O)O)C(=O)N[C@@H](CCCNC(=N)N)C(=O)NC(C)(C)C(=O)N[C@@H](C)C(=O)N[C@@H](CCC(N)=O)C(=O)NC(C)(C)C(=O)N[C@@H](CCCCNC(=O)COCCOCCNC(=O)COCCOCCNC(=O)CC[C@H](NC(=O)CC[C@H](NC(=O)CCCCCCCCCCCCCCCC(=O)O)C(=O)O)C(=O)O)C(=O)N[C@@H](Cc1ccccc1)C(=O)N[C@H](C(=O)N[C@@H](CC(N)=O)C(=O)N[C@@H](Cc1c[nH]c2ccccc12)C(=O)N[C@@H](CC(C)C)C(=O)N[C@@H](CC(C)C)C(=O)N[C@@H](C)C(=O)N[C@@H](CCC(N)=O)C(=O)N[C@@H](CCCNC(=N)N)C(N)=O)C(C)C` [Compound 8] (H-[NMeY][Aib]EGTFISDYSIALDR[Aib]AQ[Aib]K([AEEA-AEEA-γGlu-γGlu-C17 diacid])FVNWLLAQR-NH2) gave a solubility of at least 15 mg/mL. The figures for the fraction unbound in data set [2] and in data set [3] (setting [4]) were 0.0016 and 0.0009, respectively. Besides, the “free unbound peptide in human plasma (in words)” value in data set [3] is “optimum free unbound peptide”.

`CC[C@H](C)[C@H](NC(=O)[C@H](CO)NC(=O)[C@H](Cc1ccc(O)cc1)NC(=O)[C@H](CC(=O)O)NC(=O)[C@H](CO)NC(=O)[C@@H](NC(=O)[C@H](Cc1ccccc1)NC(=O)[C@@H](NC(=O)CNC(=O)[C@H](CCC(=O)O)NC(=O)C(C)(C)NC(=O)[C@H](Cc1ccc(O)cc1)NC)[C@@H](C)O)[C@@H](C)CC)C(=O)N[C@@H](C)C(=O)N[C@@H](CC(C)C)C(=O)N[C@@H](CC(=O)O)C(=O)N[C@@H](CCCNC(=N)N)C(=O)NC(C)(C)C(=O)N[C@@H](CCCCNC(=O)COCCOCCNC(=O)COCCOCCNC(=O)CC[C@H](NC(=O)CC[C@H](NC(=O)CCCCCCCCCCCCCCCC(=O)O)C(=O)O)C(=O)O)C(=O)N[C@@H](CCC(N)=O)C(=O)NC(C)(C)C(=O)N[C@@H](CC(N)=O)C(=O)N[C@@H](Cc1ccccc1)C(=O)N[C@H](C(=O)N[C@@H](CC(N)=O)C(=O)N[C@@H](Cc1c[nH]c2ccccc12)C(=O)N[C@@H](CC(C)C)C(=O)N[C@@H](CC(C)C)C(=O)N[C@@H](C)C(=O)N[C@@H](CCC(N)=O)C(=O)N[C@@H](CO)C(=O)N1CCC[C@H]1C(=O)N[C@@H](CO)C(=O)N[C@@H](CO)C(=O)NCC(=O)N[C@@H](C)C(=O)N1CCC[C@H]1C(=O)N1CCC[C@H]1C(=O)N1CCC[C@H]1C(=O)N[C@@H](CO)C(N)=O)C(C)C` [Compound 11] (H-[NMeY][Aib]EGTFISDYSIALDR[Aib]K([AEEA-AEEA-γGlu-γGlu-C17 diacid])Q[Aib]NFVNWLLAQSPSSGAPPPS-NH2): the solubility in data set [1] (pH 7.4, aqueous buffer, pH 7.4 Phosphate Buffer - Solubility, 200 mM Phosphate buffer pH 7.4) was at least 30 mg/mL; in data set [1] (pH 7.4, solubility in phosphate buffer at pH 7.4, 200 mM phosphate buffer pH 7.4), at least 15 mg/mL. The fraction unbound at 30 min, 1000 nmol/L in data set [2] is at most 0.0024; in data set [3] (setting [4]) it was 0.0038. In addition, the “free unbound peptide in human plasma (in words)” value in data set [3] was “optimum free unbound peptide”.

As for `CC[C@H](C)[C@H](NC(=O)[C@H](CO)NC(=O)[C@H](Cc1ccc(O)cc1)NC(=O)[C@H](CC(=O)O)NC(=O)[C@H](CO)NC(=O)[C@@H](NC(=O)[C@H](Cc1ccccc1)NC(=O)[C@@H](NC(=O)CNC(=O)[C@H](CCC(=O)O)NC(=O)C(C)(C)NC(=O)[C@H](Cc1ccc(O)cc1)NC)[C@@H](C)O)[C@@H](C)CC)C(=O)N[C@@H](C)C(=O)N[C@@H](CC(C)C)C(=O)N[C@@H](CC(=O)O)C(=O)N[C@@H](CCCNC(=N)N)C(=O)NC(C)(C)C(=O)N[C@@H](C)C(=O)N[C@@H](CCC(N)=O)C(=O)NC(C)(C)C(=O)N[C@@H](CCCCNC(=O)COCCOCCNC(=O)COCCOCCNC(=O)CC[C@H](NC(=O)CC[C@H](NC(=O)CCCCCCCCCCCCCCCCC(=O)O)C(=O)O)C(=O)O)C(=O)N[C@@H](Cc1ccccc1)C(=O)N[C@H](C(=O)N[C@@H](CC(N)=O)C(=O)N[C@@H](Cc1c[nH]c2ccccc12)C(=O)N[C@@H](CC(C)C)C(=O)N[C@@H](CC(C)C)C(=O)N[C@@H](C)C(=O)N[C@@H](CCC(N)=O)C(=O)N[C@@H](CCCNC(=N)N)C(=O)NCC(=O)O)C(C)C` [Compound 37] (H-[NMeY][Aib]EGTFISDYSIALDR[Aib]AQ[Aib]K([AEEA-AEEA-γGlu-γGlu-C18 diacid])FVNWLLAQRG-OH), the solubility in data set [1] (pH 7.4) was at least 15 mg/mL; in data set [1] (pH 7.4, aqueous buffer), at least 30 mg/mL. The results for the fraction unbound in data set [2] and in data set [3] (setting [4]) were 0.0012 and 0.001, respectively.

For `CC[C@H](C)[C@H](NC(=O)[C@H](CO)NC(=O)[C@H](Cc1ccc(O)cc1)NC(=O)[C@H](CC(=O)O)NC(=O)[C@H](CO)NC(=O)[C@@H](NC(=O)[C@H](Cc1ccccc1)NC(=O)[C@@H](NC(=O)CNC(=O)[C@H](CCC(=O)O)NC(=O)C(C)(C)NC(=O)[C@H](Cc1ccc(O)cc1)NC)[C@@H](C)O)[C@@H](C)CC)C(=O)N[C@@H](C)C(=O)N[C@@H](CC(C)C)C(=O)N[C@@H](CC(=O)O)C(=O)N[C@@H](CCCNC(=N)N)C(=O)NC(C)(C)C(=O)N[C@@H](Cc1c[nH]cn1)C(=O)N[C@@H](CCC(N)=O)C(=O)NC(C)(C)C(=O)N[C@@H](CC(N)=O)C(=O)N[C@@H](Cc1ccccc1)C(=O)N[C@H](C(=O)N[C@@H](CC(N)=O)C(=O)N[C@@H](Cc1c[nH]c2ccccc12)C(=O)N[C@@H](CC(C)C)C(=O)N[C@@H](CC(C)C)C(=O)N[C@@H](C)C(=O)N[C@@H](CCCCNC(=O)COCCOCCNC(=O)COCCOCCNC(=O)CC[C@H](NC(=O)CC[C@H](NC(=O)CCCCCCCCCCCCCCCCC(=O)O)C(=O)O)C(=O)O)C(=O)N[C@@H](CCCNC(=N)N)C(N)=O)C(C)C` [Compound 19] (H-[NMeY][Aib]EGTFISDYSIALDR[Aib]HQ[Aib]NFVNWLLAK([AEEA-AEEA-γGlu-γGlu-C18 diacid])R-NH2), the solubility in data set [1] (pH 7.4) is at least 15 mg/mL; in data set [1] (pH 7.4, aqueous buffer), at least 30 mg/mL. Moreover, the fraction unbound was 0.0005 in data set [2] and 0.0011 in data set [3] (setting [4]).

Consider `CC[C@H](C)[C@H](NC(=O)[C@H](CO)NC(=O)[C@H](Cc1ccc(O)cc1)NC(=O)[C@H](CC(=O)O)NC(=O)[C@H](CO)NC(=O)[C@@H](NC(=O)[C@H](Cc1ccccc1)NC(=O)[C@@H](NC(=O)CNC(=O)[C@H](CCC(=O)O)NC(=O)C(C)(C)NC(=O)[C@H](Cc1ccc(O)cc1)NC)[C@@H](C)O)[C@@H](C)CC)C(=O)N[C@@H](C)C(=O)N[C@@H](CC(C)C)C(=O)N[C@@H](CC(=O)O)C(=O)N[C@@H](CCCNC(=N)N)C(=O)NC(C)(C)C(=O)N[C@@H](C)C(=O)N[C@@H](CCC(N)=O)C(=O)NC(C)(C)C(=O)N[C@@H](CCCCNC(=O)COCCOCCNC(=O)COCCOCCNC(=O)CC[C@H](NC(=O)CC[C@H](NC(=O)CCCCCCCCCCCCCCCC(=O)O)C(=O)O)C(=O)O)C(=O)N[C@@H](Cc1ccccc1)C(=O)N[C@H](C(=O)N[C@@H](CC(N)=O)C(=O)N[C@@H](Cc1c[nH]c2ccccc12)C(=O)N[C@@H](CC(C)C)C(=O)N[C@@H](CC(C)C)C(=O)N[C@@H](C)C(=O)N[C@@H](CCC(N)=O)C(=O)N[C@@H](CCCNC(=N)N)C(=O)NCC(=O)O)C(C)C` [Compound 36] (H-[NMeY][Aib]EGTFISDYSIALDR[Aib]AQ[Aib]K([AEEA-AEEA-γGlu-γGlu-C17 diacid])FVNWLLAQRG-OH), for which the solubility in data set [1] (pH 7.4) was at least 15 mg/mL; in data set [1] (pH 7.4, aqueous buffer) it was at least 60 mg/mL. Besides, the fraction unbound was 0.0034 in data set [2] and under 0.002 in data set [3] (setting [4]).
